The text below walks through data of US10913750B2, “Tubulin-binding compounds, compositions and uses related thereto” (The Regents of the University of California, priority 2015, dated 2021).

For test [1], the system named is M207. The test can be described thus: CellTiter-Glo cell viability, M207. It counts as cell-based. On the procedure:
To determine if MI-181 had broad anti-cancer activity, we treated a diverse panel of cancer cell lines including cervical adenocarcinoma (HeLa), breast adenocarcinoma (MCF7), melanoma (M233), osteosarcoma (U205), acute lymphoblastic leukemia (CCRF-CEM), non-small cell lung carcinoma (NCI-H460), and breast adenocarcinoma (MCF7) with MI-181 and determined its cell viability IC50 (FIGS. 13A and 13B). […] Therefore, the efficacy of MI-181 was analyzed in a panel of melanoma cell lines with defined genetic backgrounds including BRAF^V600E and NRAS^Q61L mutations and varied sensitivities to Vemurafenib (BRAF inhibitor) and Trametinib (MEK inhibitor), which are currently used to treat BRAF^V600E melanomas^43,44 (FIG. 10c). […] As a general trend BRAF^V600E cell lines were slightly more sensitive than NRAS^Q61L cell lines and MI-181 was effective in Vemurafenib and Trametinib resistant cell lines (FIG. 10c and Table 3). Finally, we tested the ability of MI-181 to inhibit melanoma colony formation using the M233 and M308 cell lines (both resistant to Vemurafenib). Indeed, MI-181 was a potent inhibitor of colony formation (percentage colony formation for 10 nM MI-181=0.2±0.1 and 0.8±0.7; for 10 nM colchicine=0.1±0.06 and 1.5±0.5; and for 10 nM Vemurafenib=94±7 and 102±5) (FIG. 10d). Thus, MI-181 is a potent inhibitor of melanoma cell lines. […]
Background: Cellular ATP, detected with luciferase, serves as a proxy for viable cell number.

The test system of test [2] is M233. Description: Melanoma colony formation, M233. The class given is cell-based. The note with it: 10 nM, M233 (first value of pair). On the procedure:
To determine if MI-181 had broad anti-cancer activity, we treated a diverse panel of cancer cell lines including cervical adenocarcinoma (HeLa), breast adenocarcinoma (MCF7), melanoma (M233), osteosarcoma (U205), acute lymphoblastic leukemia (CCRF-CEM), non-small cell lung carcinoma (NCI-H460), and breast adenocarcinoma (MCF7) with MI-181 and determined its cell viability IC50 (FIGS. 13A and 13B). […] Therefore, the efficacy of MI-181 was analyzed in a panel of melanoma cell lines with defined genetic backgrounds including BRAF^V600E and NRAS^Q61L mutations and varied sensitivities to Vemurafenib (BRAF inhibitor) and Trametinib (MEK inhibitor), which are currently used to treat BRAF^V600E melanomas^43,44 (FIG. 10c). […] As a general trend BRAF^V600E cell lines were slightly more sensitive than NRAS^Q61L cell lines and MI-181 was effective in Vemurafenib and Trametinib resistant cell lines (FIG. 10c and Table 3). Finally, we tested the ability of MI-181 to inhibit melanoma colony formation using the M233 and M308 cell lines (both resistant to Vemurafenib). Indeed, MI-181 was a potent inhibitor of colony formation (percentage colony formation for 10 nM MI-181=0.2±0.1 and 0.8±0.7; for 10 nM colchicine=0.1±0.06 and 1.5±0.5; and for 10 nM Vemurafenib=94±7 and 102±5) (FIG. 10d). Thus, MI-181 is a potent inhibitor of melanoma cell lines.

Test [3] deals with β-tubulin. Description: Crystal structure of T2R-TTL tubulin complex soaked with ligand. It counts as binding, bovine. The note with it: T2R-TTL crystal soaked 24 hours with 1 mM compound. The method, then:
The crystal structure of tubulin bound to two ligands described here was obtained using an established system for tubulin crystal growth. […] Methods in Cell Biology 2010, 95:373-390.) Briefly, bovine αβ-tubulin, human RB3 or rat STMN4 stathmin-like domain, and chicken tubulin tyrosine ligase (TTL) reconstitute to form a stathmin-bound αβ-tubulin (T2R) T2R-TTL complex, which readily crystallizes. […]
The final resolution cutoffs described here were determined optimally from a subset of diffraction images that took into consideration the signal-to-noise ratio for reflection intensities and the random half-data set correlation coefficient, CC1/2 (Karplus P. A., Diederichs K. Linking crystallographic model and data quality. Science 2012, (New York, N.Y.) 336:1030-1033.) […]

For the compound `Cc1cc2nc(/C=C/c3cccnc3)sc2cc1C` [MI-181], it took 41.7 nM to reach half-maximal inhibition in test [1] (IC50). Moreover, the percentage colony formation in test [2] was found to be 0.2±0.1. In addition, the “binding to tubulin in crystal structure” value in test [3] was “bound to β-tubulin”.

As a reminder, the IC50 is the concentration that gives 50% inhibition. A low value points to greater potency in that assay.
